Tested on: A549 (lung cancer) cells
Assay: MTT screening of Erlotinib derivatives on A549 cells
Type: cell-based
Details: compound 10 μM, 24 hours, ratio of survival rate with derivative to survival rate with Erlotinib (lower = more active), unpurified in-situ reaction products
Protocol: Screening 840 Erlotinib derivatives by MTT method, operating steps: • (1) A549 (lung cancer) cells were adhered overnight: the logarithmic growth phase cells were digested and then counted, and were laid on 96 well plates overnight with 5000 cells per well. • (2) Adding drug: the compound concentration was diluted to 10 μM with complete culture solution, and the supernatant was discarded, and a volume of 100 μL per well was administrated and treated for 24 hours. • (3) Adding MTT: 20 μL MTT (5 mg/ml) was added to each well and cultured for 4 hours. • (4) Measuring the absorbance value: discarding the supernatant, 150 μL DMSO was added to each well, shaken for 10 minutes to make the crystals fully dissolved. The absorbance at 570 nm was measured by microplate reader.
The relative survival rate was calculated as the ratio of the survival rate of cells treated with Erlotinib derivatives to the survival rate of cells treated with positive compounds (Erlotinib), where lower relative survival rate means the activity of the compounds are better.

SMILES | Relative survival rate
COCCOc1cc2ncnc(Nc3cccc(-c4cn(-c5cc(C)nn5-c5ccccc5)nn4)c3)c2cc1OCCOC [Compound 47] | 0.893
COCCOc1cc2ncnc(Nc3cccc(-c4cn(Cc5cc(C)on5)nn4)c3)c2cc1OCCOC [Compound 54] | 0.878
COCCOc1cc2ncnc(Nc3cccc(-c4cn(-c5ccc(CC(=O)OC)cc5)nn4)c3)c2cc1OCCOC [Compound 270] | 1.200
COCCOc1cc2ncnc(Nc3cccc(-c4cn(CCc5cccc(OC)c5)nn4)c3)c2cc1OCCOC [Compound 20] | 0.993
COCCOc1cc2ncnc(Nc3cccc(-c4cn([C@@H](Cc5ccccc5)C(=O)OC(C)(C)C)nn4)c3)c2cc1OCCOC [Compound 23] | 0.874
COCCOc1cc2ncnc(Nc3cccc(-c4cn(CC5=CCC(O)C=C5)nn4)c3)c2cc1OCCOC (centres unmarked) [Compound 25] | 0.885
CCOc1ccccc1Cn1cc(-c2cccc(Nc3ncnc4cc(OCCOC)c(OCCOC)cc34)c2)nn1 [Compound 48] | 0.971
COCCOc1cc2ncnc(Nc3cccc(-c4cn(C(C)(C)c5ccccc5)nn4)c3)c2cc1OCCOC [Compound 27] | 0.862
COCCOc1cc2ncnc(Nc3cccc(-c4cn([C@@H](C)C(=O)OCc5ccccc5)nn4)c3)c2cc1OCCOC [Compound 96] | 0.829
COCCOc1cc2ncnc(Nc3cccc(-c4cn(C5CCCc6ccccc65)nn4)c3)c2cc1OCCOC (centres unmarked) [Compound 89] | 0.577
COCCOc1cc2ncnc(Nc3cccc(-c4cn(CCc5cccc([N+](=O)[O-])c5)nn4)c3)c2cc1OCCOC [Compound 49] | 0.913
COCCOc1cc2ncnc(Nc3cccc(-c4cn(Cc5cccc(C(=O)OC)c5)nn4)c3)c2cc1OCCOC [Compound 50] | 0.951
COCCOc1cc2ncnc(Nc3cccc(-c4cn(C[C@@H](O)c5ccccc5)nn4)c3)c2cc1OCCOC [Compound 84] | 0.988
COCCOc1cc2ncnc(Nc3cccc(-c4cn(Cc5ccsc5)nn4)c3)c2cc1OCCOC [Compound 57] | 0.957
COCCOc1cc2ncnc(Nc3cccc(-c4cn([C@H]5CCc6nc(N)sc6C5)nn4)c3)c2cc1OCCOC [Compound 22] | 0.866
COCCOc1cc2ncnc(Nc3cccc(-c4cn(-c5ccc(C)cc5C(=O)O)nn4)c3)c2cc1OCCOC [Compound 268] | 1.311
COCCOc1cc2ncnc(Nc3cccc(-c4cn([C@@H](Cc5ccccc5)C(=O)OC)nn4)c3)c2cc1OCCOC [Compound 94] | 0.885
COCCOc1cc2ncnc(Nc3cccc(-c4cn(Cc5c[nH]cn5)nn4)c3)c2cc1OCCOC [Compound 53] | 0.928
COCCOc1cc2ncnc(Nc3cccc(-c4cn(CCc5cccc(F)c5)nn4)c3)c2cc1OCCOC [Compound 86] | 0.861

SMILES | Relative survival rate
COCCOc1cc2ncnc(Nc3cccc(-c4cn(CC(O)c5cccc(Cl)c5)nn4)c3)c2cc1OCCOC (centres unmarked) [Compound 92] | 0.854
COCCOc1cc2ncnc(Nc3cccc(-c4cn(C(C)(C)c5cc(F)cc(F)c5)nn4)c3)c2cc1OCCOC [Compound 56] | 0.978
COCCOc1cc2ncnc(Nc3cccc(-c4cn([C@H](Cc5ccc(O)cc5)C(=O)OC)nn4)c3)c2cc1OCCOC [Compound 88] | 0.889
COCCOc1cc2ncnc(Nc3cccc(-c4cn(Cc5ccccc5S(C)(=O)=O)nn4)c3)c2cc1OCCOC [Compound 55] | 0.814
COCCOc1cc2ncnc(Nc3cccc(-c4cn([C@H](CO)C(=O)OCc5ccccc5)nn4)c3)c2cc1OCCOC [Compound 51] | 0.989
COCCOc1cc2ncnc(Nc3cccc(-c4cn(CCc5c[nH]c6cc(Cl)ccc56)nn4)c3)c2cc1OCCOC [Compound 90] | 0.522
COCCOc1cc2ncnc(Nc3cccc(-c4cn(CC(O)c5cccc(O)c5)nn4)c3)c2cc1OCCOC (centres unmarked) [Compound 95] | 0.971
COCCOc1cc2ncnc(Nc3cccc(-c4cn(Cc5ccc(Cl)nc5)nn4)c3)c2cc1OCCOC [Compound 98] | 0.959
COCCOc1cc2ncnc(Nc3cccc(-c4cn(CCCOCc5ccccc5)nn4)c3)c2cc1OCCOC [Compound 85] | 0.867
COCCOc1cc2ncnc(Nc3cccc(-c4cn(CCc5ccccn5)nn4)c3)c2cc1OCCOC [Compound 99] | 0.888
COCCOc1cc2ncnc(Nc3cccc(-c4cn(CCc5ccc(Cl)c(Cl)c5)nn4)c3)c2cc1OCCOC [Compound 87] | 0.850
COCCOc1cc2ncnc(Nc3cccc(-c4cn(-c5ccccc5)nn4)c3)c2cc1OCCOC [Compound 266] | 1.130
CCOC(=O)[C@H](Cc1ccc(O)cc1)n1cc(-c2cccc(Nc3ncnc4cc(OCCOC)c(OCCOC)cc34)c2)nn1 [Compound 26] | 0.942
COCCOc1cc2ncnc(Nc3cccc(-c4cn(CCc5ccc6ccccc6c5)nn4)c3)c2cc1OCCOC [Compound 97] | 0.654
COCCOc1cc2ncnc(Nc3cccc(-c4cn(CCc5cccc(C(F)(F)F)c5)nn4)c3)c2cc1OCCOC [Compound 93] | 0.621
COCCOc1cc2ncnc(Nc3cccc(-c4cn(-c5ccc(O)c(C(=O)O)c5)nn4)c3)c2cc1OCCOC [Compound 267] | 1.129
COCCOc1cc2ncnc(Nc3cccc(-c4cn(C(C)(Cc5ccccc5)C(=O)OC)nn4)c3)c2cc1OCCOC (centres unmarked) [Compound 24] | 0.557
COCCOc1cc2ncnc(Nc3cccc(-c4cn(-c5ccc(Cc6ccccc6)cc5)nn4)c3)c2cc1OCCOC [Compound 269] | 1.289
COCCOc1cc2ncnc(Nc3cccc(-c4cn([C@H](C)c5nc6ccccc6[nH]5)nn4)c3)c2cc1OCCOC [Compound 52] | 0.993
